Laboratory results taken from patent publication US20260216135A1, “ANTIVIRAL PHARMACEUTICAL COMPOSITION AND PREPARATION METHOD THEREFOR” (priority 2023, published 2026).
Where two headings read alike, the source gives them in different places.

Key:
[1] = tested on: SARS-CoV-2 Omicron strain (B.1.1.529); experiment: microbe, parasite or virus in culture; details: Severe acute respiratory syndrome coronavirus 2, Vero C1008, read-out: IC50 (μM), Vero E6 Omicron strain (B.1.1.529)
[2] = tested on: 47 safety-related targets; details: read-out: EC50 for 47 safety-related targets (inhibition or activation)
Text: For 78 tests related to 47 safe targets, the experimental methods used included: CAMP assay, calcium flux assay, hormone nuclear receptor assay, kinase binding assay, enzyme activity assay, neurotransmitter transporter assay, ion channel assay, and transporter assay.

SARS-CoV-2 Delta strain = details: for Viral load, brain tissue, Day 4 / Viral load, lung tissue, Day 2: intragastric BID, mean ± SD
[3] = 200 mg/kg + ritonavir 50 mg/kg, listed as compound of formula (I)

CC(C)(C)[C@H](NC(=O)C(F)(F)F)C(=O)N1CC2(C[C@H]1C(=O)N[C@H](C#N)C[C@@H]1CCNC1=O)SCCS2 [Compound of formula (I)]
IC50 [1]: 0.12 µM | EC50 [2]: > 100 µM | Viral load, brain tissue, Day 4 (SARS-CoV-2 Delta strain; 50 mg/kg + ritonavir 50 mg/kg): 2.88 ± 1.26 log10 copies/mg | Viral load, lung tissue, Day 2 (SARS-CoV-2 Delta strain; 50 mg/kg + ritonavir 50 mg/kg): 7.66 ± 0.27 log10 copies/g | Viral load, lung tissue, Day 2 (SARS-CoV-2 Delta strain; 50 mg/kg + ritonavir 50 mg/kg, listed as compound of formula (I)): 7.66 log10 copies/g | Viral load, brain tissue, Day 4 (SARS-CoV-2 Delta strain; 200 mg/kg + ritonavir 50 mg/kg): 0.99 ± 0.42 log10 copies/mg | Viral load, lung tissue, Day 2 (SARS-CoV-2 Delta strain; 200 mg/kg + ritonavir 50 mg/kg): 6.79 ± 0.30 log10 copies/g | Viral load, brain tissue, Day 4 (SARS-CoV-2 Delta strain; [3]): comparable to that of the uninfected normal group | Viral load, lung tissue, Day 2 (SARS-CoV-2 Delta strain; [3]): 6.79±0.30 log10 copies/g | Histopathological analysis of the lungs (SARS-CoV-2 Delta strain; 200 mg/kg, compared with model group): significantly ameliorated lung damage | Body weight of mice (SARS-CoV-2 Delta strain; mouse, in vivo): not significantly reduced | Reduction of viral copy number in the lungs compared with the model group (SARS-CoV-2 Delta strain; mouse, in vivo): 2.4 log 10 copies/g | Reduction of viral titer in the lungs compared to the model group (SARS-CoV-2 Delta strain; mouse, in vivo): more than 3 log 10 PFU/g | Virus titer in the brains (plaque assay) (SARS-CoV-2 Delta strain; mouse, in vivo): no virus titer was detected
